Laboratory results as given in patent US20120132204A1, “UNIT DOSE DRY POWDER INHALER” (priority 2005, published 2012).

How the values were obtained:
[1] = Particle size of spray-dried powder (Predictive Example); assay type: physicochemical; conditions: spray dried from 10% w/v feedstock
Method: A feedstock comprising 10% w/v frovatriptan succinate was fed to an in-house spray-dryer and was spray dried at the following settings: feed rate=2.1 g/min, inlet temp=130° C., outlet temp=66° C., atomisation=2-fluid nozzle, atomisation pressure=2 barg, atomisation air flow rate=21 l/min, drying air pressure=1 barg, drying air flow rate=5 l/sec. A respirable powder of less than 10 microns was produced which could then be administered to a patient in need of rapid relief from a migraine using the unit-dose dry powder inhaler of the invention.

[2] = system: 5-HT receptor; conditions: compared within the triptan class; cited from earlier work
[3] = preclinical pharmacology studies; cited from earlier work
[4] = broad dose range of 1 to 100 mg; cited from earlier work
[5] = system: cytochrome P450 isoenzymes; conditions: cited from earlier work
[6] = system: plasma proteins; conditions: cited from earlier work
[7] = system: migraine; conditions: cited from earlier work

particle size of respirable powder [1] | Compound | 5-HT potency [2] | cerebro-selectivity [3] | tolerability [4] | inhibiting or inducing effects on cytochrome P450 isoenzymes [5] | binding to plasma proteins [6] | response rates ([7]; compared with placebo) | headache recurrence rates ([7]; compared within the triptan class)
less than 10 microns | CN[C@@H]1CCc2[nH]c3ccc(C(N)=O)cc3c2C1 [frovatriptan succinate] | – | – | – | – | – | – | –
– | CN[C@@H]1CCc2[nH]c3ccc(C(N)=O)cc3c2C1 [Frovatriptan] | highest 5-HT potency in the triptan class | apparently cerebro-selective | well-tolerated | no inhibiting or inducing effects | only slightly bound | significantly higher response rates compared with placebo | lowest reported range of headache recurrence rates in the triptan class
